Assay results reported in PubChem BioAssay (NCI).
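1) Cells in 96-well plates. 2) Compound, 48 h, 5 concentrations. 3) Linear interpolation between surrounding doses. 4) Unreached endpoint = highest concentration. GI50: concentration for 50% inhibition of growth. The concentration for full growth arrest is given as TGI.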

Experiments:
Assay in all cases: inhibition of tumour cell growth, NCI panel, 48 h
[1] = system: SN12C renal
[2] = system: SK-MEL-28 melanoma
[3] = system: NCI/ADR-RES ovarian
[4] = system: HT29 colon
[5] = system: HOP-92 NSCLC
[6] = system: NCI-H460 lung
[7] = system: KM12 colon
[8] = system: COLO 205 colon
[9] = system: HS 578T breast
[10] = system: HOP-62 NSCLC
[11] = system: UO-31 renal
[12] = system: SNB-75 CNS
[13] = system: A549 NSCLC
[14] = system: BT-549 breast
[15] = system: OVCAR-5 ovarian
[16] = system: 786-0 renal
[17] = system: OVCAR-4 ovarian
[18] = system: MOLT-4 leukemia
[19] = system: NCI-H23 lung
[20] = system: K-562 leukemia
[21] = system: PC-3 prostate
[22] = system: RPMI-8226 leukemia
[23] = system: M14 melanoma
[24] = system: SNB-19 CNS
[25] = system: HCC-2998 colon
[26] = system: SF-268 CNS
[27] = system: MDA-MB-435
[28] = system: NCI-H226 lung
[29] = system: HL-60(TB) leukemia

CCN(CC)CCOc1ccc2c(C)c(C(=O)OC)oc2c1C(=O)/C=C/c1ccc(OC)cc1
GI50 [1]: 0.166 µM | TGI [1]: 2.66 µM | GI50 [2]: 2.89 µM | TGI [2]: 11.2 µM | GI50 [3]: 2.58 µM | TGI [3]: 6.53 µM | GI50 [4]: 1.9 µM | TGI [4]: 13 µM | GI50 [5]: 0.551 µM | TGI [5]: 2.77 µM | GI50 [6]: 3.65 µM | TGI [6]: > 67.4 µM | GI50 [7]: 1.76 µM | TGI [7]: 3.96 µM | GI50 [8]: 4.03 µM | GI50 [9]: 24.1 µM | TGI [9]: 51.4 µM | GI50 [10]: 28.5 µM | TGI [10]: > 55.6 µM | GI50 [11]: 1.45 µM | GI50 [12]: 2.81 µM | TGI [12]: 8.44 µM | GI50 [13]: 17.6 µM | TGI [13]: 40.6 µM | GI50 [14]: 20.6 µM | TGI [14]: 39.4 µM | GI50 [15]: 2.32 µM | TGI [15]: 6.99 µM | GI50 [16]: 16.6 µM | TGI [16]: > 45.7 µM | GI50 [17]: 2.43 µM | TGI [17]: 6.85 µM | GI50 [18]: 1.54 µM | TGI [18]: 6.58 µM | GI50 [19]: 2.93 µM | TGI [19]: 8.34 µM | GI50 [20]: 1.13 µM | TGI [20]: > 20.1 µM | GI50 [21]: 2.01 µM | TGI [21]: 5.46 µM | GI50 [22]: 1.58 µM | TGI [22]: 4.42 µM | GI50 [23]: 25.4 µM | TGI [23]: > 48.7 µM | GI50 [24]: 4.86 µM | TGI [24]: 13.8 µM | GI50 [25]: 1.86 µM | TGI [25]: 3.72 µM | GI50 [26]: 3.75 µM | TGI [26]: > 28.1 µM | GI50 [27]: 5.54 µM | TGI [27]: 15.8 µM | GI50 [28]: 25.3 µM | TGI [28]: 44.9 µM | GI50 [29]: 1.94 µM | TGI [29]: 6.11 µM
